How the values were obtained:
IM-9 = assay: SANGER: Inhibition of human IM-9 cell growth in a cell viability assay.; assay type: functional, cell-based; settings: Homo sapiens, IM-9
ST486 = assay: SANGER: Inhibition of human ST486 cell growth in a cell viability assay.; assay type: functional, cell-based; settings: Homo sapiens, ST486
NCI-H2171 = assay: cells; assay type: functional, cell-based, Homo sapiens; settings: Homo sapiens, NCI-H2171;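 note: growth inhibition of human NCI-H2171 cells, read out by a cell viability assay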
Description: SANGER: Inhibition of human NCI-H2171 cell growth in a cell viability assay.

CMK = assay: cells; assay type: functional, cell-based, Homo sapiens; settings: Homo sapiens, CMK;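 note: growth inhibition of CMK cells, read out as cell viability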
Description: SANGER: Inhibition of human CMK cell growth in a cell viability assay.

NCI-H2452 = assay: cells; assay type: functional, cell-based, Homo sapiens; settings: Homo sapiens, NCI-H2452;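 note: growth inhibition of NCI-H2452 cells, read out with a cell viability assay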
Description: SANGER: Inhibition of human NCI-H2452 cell growth in a cell viability assay.

NCI-H520 = assay: cells; assay type: functional, cell-based, Homo sapiens; settings: Homo sapiens, NCI-H520;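 note: growth inhibition of NCI-H520 cells, measured by a cell viability assay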
Description: SANGER: Inhibition of human NCI-H520 cell growth in a cell viability assay.

EB-3 = assay: cells; assay type: functional, cell-based, Homo sapiens; settings: Homo sapiens, EB-3;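 note: human EB-3 cells, growth inhibition read out via a cell viability assay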
Description: SANGER: Inhibition of human EB-3 cell growth in a cell viability assay.

MHH-CALL-2 = assay: cells; assay type: functional, cell-based, Homo sapiens; settings: Homo sapiens, MHH-CALL-2;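 note: growth inhibition of the cell line, read out in a cell viability assay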
Description: SANGER: Inhibition of human MHH-CALL-2 cell growth in a cell viability assay.

Huh-7 = assay: cells; assay type: functional, cell-based, Homo sapiens; settings: Homo sapiens, Huh-7;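 note: HuH-7 cell growth inhibition, read out with a cell viability assay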
Description: SANGER: Inhibition of human HuH-7 cell growth in a cell viability assay.

HCC1395 = assay: cells; assay type: functional, cell-based, Homo sapiens; settings: Homo sapiens, HCC1395;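 note: growth inhibition of HCC1395 cells, read out by a cell viability assay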
Description: SANGER: Inhibition of human HCC1395 cell growth in a cell viability assay.

U-698-M = assay: cells; assay type: functional, cell-based, Homo sapiens; settings: Homo sapiens, U-698-M
Description: SANGER: Inhibition of human U-698-M cell growth in a cell viability assay.

MC-IXC = assay: cells; assay type: functional, cell-based, Homo sapiens; settings: Homo sapiens, MC-IXC;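 note: growth inhibition of MC-IXC cells, read out with a cell viability assay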
Description: SANGER: Inhibition of human MC-IXC cell growth in a cell viability assay.

J82 = assay: cells; assay type: functional, cell-based, Homo sapiens; settings: Homo sapiens, J82;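 note: growth inhibition of J82 cells, read out with a cell viability assay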
Description: SANGER: Inhibition of human J82 cell growth in a cell viability assay.

ME-180 = assay: cells; assay type: functional, cell-based, Homo sapiens; settings: Homo sapiens, ME-180;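 note: cell viability assay measuring growth inhibition of ME-180 cells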
Description: SANGER: Inhibition of human ME-180 cell growth in a cell viability assay.

NCI-H650 = assay: cells; assay type: functional, cell-based, Homo sapiens; settings: Homo sapiens, NCI-H650;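 note: growth inhibition of NCI-H650 cells, read out by a viability assay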
Description: SANGER: Inhibition of human NCI-H650 cell growth in a cell viability assay.

RT-112 = assay: cells; assay type: functional, cell-based, Homo sapiens; settings: Homo sapiens, RT-112
Description: SANGER: Inhibition of human RT-112 cell growth in a cell viability assay.

NCI-H64 = assay: cells; assay type: functional, cell-based, Homo sapiens; settings: Homo sapiens, NCI-H64;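 note: growth inhibition of NCI-H64 cells, read out with a cell viability assay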
Description: SANGER: Inhibition of human NCI-H64 cell growth in a cell viability assay.

HPAF-II = assay: cells; assay type: functional, cell-based, Homo sapiens; settings: Homo sapiens, HPAF-II;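 note: growth inhibition of HPAF-II cells, read out with a cell viability assay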
Description: SANGER: Inhibition of human HPAF-II cell growth in a cell viability assay.

NCI-H2081 = assay: cells; assay type: functional, cell-based, Homo sapiens; settings: Homo sapiens, NCI-H2081;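 note: growth inhibition of human NCI-H2081 cells, read out with a cell viability assay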
Description: SANGER: Inhibition of human NCI-H2081 cell growth in a cell viability assay.

HLE = assay: cells; assay type: functional, cell-based, Homo sapiens; settings: Homo sapiens, HLE;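 note: growth inhibition of human HLE cells, read out by a cell viability assay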
Description: SANGER: Inhibition of human HLE cell growth in a cell viability assay.

NCI-H2227 = assay: cells; assay type: functional, cell-based, Homo sapiens; settings: Homo sapiens, NCI-H2227;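 note: growth inhibition of the human cell line, read out with a cell viability assay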
Description: SANGER: Inhibition of human NCI-H2227 cell growth in a cell viability assay.

TCC-SUP = assay: cells; assay type: functional, cell-based, Homo sapiens; settings: Homo sapiens, TCC-SUP;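 note: growth inhibition of TCC-SUP cells, read out with a cell viability assay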
Description: SANGER: Inhibition of human TCCSUP cell growth in a cell viability assay.

YT = assay: cells; assay type: functional, cell-based, Homo sapiens; settings: Homo sapiens, YT
Description: SANGER: Inhibition of human YT cell growth in a cell viability assay.

TALL-1 = assay: cells; assay type: functional, cell-based, Homo sapiens; settings: Homo sapiens, TALL-1;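 note: growth inhibition of cultured human TALL-1 cells, read out by a cell viability assay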
Description: SANGER: Inhibition of human TALL-1 cell growth in a cell viability assay.

OE19 = assay: cells; assay type: functional, cell-based, Homo sapiens; settings: Homo sapiens, OE19;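 note: growth inhibition of OE19 cells, measured through a cell viability read-out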
Description: SANGER: Inhibition of human OE19 cell growth in a cell viability assay.

786-0 = assay: cells; assay type: functional, cell-based, Homo sapiens; settings: Homo sapiens
Description: SANGER: Inhibition of human 786-0 cell growth in a cell viability assay.

HSC-3 = assay: cells; assay type: functional, cell-based, Homo sapiens; settings: Homo sapiens, HSC-3
Description: SANGER: Inhibition of human HSC-3 cell growth in a cell viability assay.

SCC-9 = assay: cells; assay type: functional, cell-based, Homo sapiens; settings: Homo sapiens, SCC-9;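 note: Read-out is a cell viability assay, with values giving inhibition of cell growth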
Description: SANGER: Inhibition of human SCC-9 cell growth in a cell viability assay.

A673 = assay: cells; assay type: functional, cell-based, Homo sapiens; settings: Homo sapiens, A673;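 note: growth inhibition of human A673 cells, read out through a cell viability assay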
Description: SANGER: Inhibition of human A673 cell growth in a cell viability assay.

RPMI-7951 = assay: cells; assay type: functional, cell-based, Homo sapiens; settings: Homo sapiens, RPMI-7951
Description: SANGER: Inhibition of human RPMI-7951 cell growth in a cell viability assay.

NCI-H2087 = assay: cells; assay type: functional, cell-based, Homo sapiens; settings: Homo sapiens, NCI-H2087;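 note: growth inhibition determined with a cell viability readout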
Description: SANGER: Inhibition of human NCI-H2087 cell growth in a cell viability assay.

YKG-1 = assay: cells; assay type: functional, cell-based, Homo sapiens; settings: Homo sapiens, YKG-1;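 note: cell growth inhibition, read out with a viability assay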
Description: SANGER: Inhibition of human YKG-1 cell growth in a cell viability assay.

GCT = assay: cells; assay type: functional, cell-based, Homo sapiens; settings: Homo sapiens, GCT;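 note: GCT cell line proliferation inhibition, read out with a cell viability assay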
Description: SANGER: Inhibition of human GCT cell growth in a cell viability assay.

A2780 = assay: cells; assay type: functional, cell-based, Homo sapiens; settings: Homo sapiens, A2780;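 note: growth inhibition of A2780 cells, read out with a cell viability assay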
Description: SANGER: Inhibition of human A2780 cell growth in a cell viability assay.

MIA PaCa-2 = assay: cells; assay type: functional, cell-based, Homo sapiens; settings: Homo sapiens, MIA PaCa-2;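 note: growth inhibition of MIA PaCa-2 cells, read out with a cell viability assay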
Description: SANGER: Inhibition of human MIA-PaCa-2 cell growth in a cell viability assay.

MFE-280 = assay: cells; assay type: functional, cell-based, Homo sapiens; settings: Homo sapiens, MFE-280;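 note: growth inhibition of MFE-280 cells, determined with a cell viability readout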
Description: SANGER: Inhibition of human MFE-280 cell growth in a cell viability assay.

ASPC1 = assay: cells; assay type: functional, cell-based, Homo sapiens; settings: Homo sapiens, ASPC1;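 note: growth inhibition of AsPC-1 cells, read out with a cell viability assay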
Description: SANGER: Inhibition of human AsPC-1 cell growth in a cell viability assay.

SCC-4 = assay: cells; assay type: functional, cell-based, Homo sapiens; settings: Homo sapiens, SCC-4;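 note: growth inhibition of human SCC-4 cells, read out as cell viability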
Description: SANGER: Inhibition of human SCC-4 cell growth in a cell viability assay.

KYSE-140 = assay: cells; assay type: functional, cell-based, Homo sapiens; settings: Homo sapiens, KYSE-140;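 note: cell viability assay measuring growth inhibition in human KYSE-140 cells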
Description: SANGER: Inhibition of human KYSE-140 cell growth in a cell viability assay.

NCI-H1792 = assay: cells; assay type: functional, cell-based, Homo sapiens; settings: Homo sapiens, NCI-H1792;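 note: growth inhibition of human NCI-H1792 cells, read out as cell viability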
Description: SANGER: Inhibition of human NCI-H1792 cell growth in a cell viability assay.

CAL-148 = assay: cells; assay type: functional, cell-based, Homo sapiens; settings: Homo sapiens, CAL-148
Description: SANGER: Inhibition of human CAL-148 cell growth in a cell viability assay.

HCT-15 = assay: cells; assay type: functional, cell-based, Homo sapiens; settings: Homo sapiens, HCT-15;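 note: cell viability readout, IC50 reflecting suppression of HCT-15 cell growth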
Description: SANGER: Inhibition of human HCT-15 cell growth in a cell viability assay.

ABC-1 = assay: cells; assay type: functional, cell-based, Homo sapiens; settings: Homo sapiens, ABC-1;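 note: growth inhibition of human ABC-1 cells, read out by a cell viability assay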
Description: SANGER: Inhibition of human ABC-1 cell growth in a cell viability assay.

NCI-H28 = assay: cells; assay type: functional, cell-based, Homo sapiens; settings: Homo sapiens, NCI-H28;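 note: growth inhibition of human NCI-H28 cells, read out as cell viability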
Description: SANGER: Inhibition of human NCI-H28 cell growth in a cell viability assay.

ESS-1 = assay: cells; assay type: functional, cell-based, Homo sapiens; settings: Homo sapiens, ESS-1;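 note: growth inhibition of human ESS-1 cells, read out by a cell viability assay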
Description: SANGER: Inhibition of human ESS-1 cell growth in a cell viability assay.

G-402 = assay: cells; assay type: functional, cell-based, Homo sapiens; settings: Homo sapiens, G-402
Description: SANGER: Inhibition of human G-402 cell growth in a cell viability assay.

LB647-SCLC = assay: cells; assay type: functional, cell-based, Homo sapiens; settings: Homo sapiens, LB647-SCLC;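 note: cell growth inhibition, read out by a viability assay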
Description: SANGER: Inhibition of human LB647-SCLC cell growth in a cell viability assay.

Nc1ccn([C@@H]2O[C@H](CO)[C@@H](O)C2(F)F)c(=O)n1 [GEMCITABINE]
IC50 (IM-9): 0.347 µM
IC50 (ST486): 0.00941 µM
IC50 (NCI-H2171): > 1.02 µM
IC50 (CMK): < 0.004 µM
IC50 (NCI-H2452): > 1.02 µM
IC50 (NCI-H520): 0.0188 µM
IC50 (EB-3): > 1.02 µM
IC50 (MHH-CALL-2): 1.02 µM
IC50 (Huh-7): 0.569 µM
IC50 (HCC1395): > 1.02 µM
IC50 (U-698-M): 0.345 µM
IC50 (MC-IXC): 0.00226 µM
IC50 (J82): 0.00741 µM
IC50 (ME-180): 0.0388 µM
IC50 (NCI-H650): 0.566 µM
IC50 (RT-112): < 0.004 µM
IC50 (NCI-H64): 0.151 µM
IC50 (HPAF-II): 0.428 µM
IC50 (NCI-H2081): 0.311 µM
IC50 (HLE): 0.003 µM
IC50 (NCI-H2227): > 1.02 µM
IC50 (TCC-SUP): > 1.02 µM
IC50 (YT): > 1.02 µM
IC50 (TALL-1): > 1.02 µM
IC50 (OE19): 0.702 µM
IC50 (786-0): < 0.004 µM
IC50 (HSC-3): 0.00191 µM
IC50 (SCC-9): > 1.02 µM
IC50 (A673): 0.0342 µM
IC50 (RPMI-7951): < 0.004 µM
IC50 (NCI-H2087): 0.00214 µM
IC50 (YKG-1): < 0.004 µM
IC50 (GCT): 0.405 µM
IC50 (A2780): < 0.004 µM
IC50 (MIA PaCa-2): 0.0234 µM
IC50 (MFE-280): > 1.02 µM
IC50 (ASPC1): > 1.02 µM
IC50 (SCC-4): 0.212 µM
IC50 (KYSE-140): 0.0279 µM
IC50 (NCI-H1792): 0.259 µM
IC50 (CAL-148): 0.0172 µM
IC50 (HCT-15): 0.0822 µM
IC50 (ABC-1): 0.0226 µM
IC50 (NCI-H28): > 1.02 µM
IC50 (ESS-1): < 0.004 µM
IC50 (G-402): < 0.004 µM
IC50 (LB647-SCLC): 0.00118 µM

O=C(O)c1ccc(-c2c[nH]c3ncc(-c4ccccc4)cc23)cc1C1CCCC1 [GSK-650394]
IC50 (IM-9): > 16 µM
IC50 (ST486): > 16 µM
IC50 (NCI-H2171): > 16 µM
IC50 (CMK): 8.25 µM
IC50 (NCI-H2452): > 16 µM
IC50 (NCI-H520): > 16 µM
IC50 (EB-3): > 16 µM
IC50 (MHH-CALL-2): > 16 µM
IC50 (Huh-7): > 16 µM
IC50 (HCC1395): > 16 µM
IC50 (U-698-M): > 16 µM
IC50 (MC-IXC): > 16 µM
IC50 (J82): 8.2 µM
IC50 (ME-180): > 16 µM
IC50 (NCI-H650): 6.64 µM
IC50 (RT-112): 1.03 µM
IC50 (NCI-H64): > 16 µM
IC50 (HPAF-II): > 16 µM
IC50 (NCI-H2081): > 16 µM
IC50 (HLE): 1.43 µM
IC50 (NCI-H2227): > 16 µM
IC50 (TCC-SUP): > 16 µM
IC50 (YT): 9.9 µM
IC50 (TALL-1): > 16 µM
IC50 (OE19): > 16 µM
IC50 (786-0): 2.95 µM
IC50 (HSC-3): > 16 µM
IC50 (SCC-9): > 16 µM
IC50 (A673): > 16 µM
IC50 (RPMI-7951): > 16 µM
IC50 (NCI-H2087): 13.4 µM
IC50 (YKG-1): 7.39 µM
IC50 (GCT): > 16 µM
IC50 (A2780): > 16 µM
IC50 (MIA PaCa-2): 7.08 µM
IC50 (MFE-280): > 16 µM
IC50 (ASPC1): > 16 µM
IC50 (SCC-4): > 16 µM
IC50 (KYSE-140): 8.09 µM
IC50 (NCI-H1792): > 16 µM
IC50 (CAL-148): > 16 µM
IC50 (HCT-15): 3.63 µM
IC50 (ABC-1): 6.58 µM
IC50 (NCI-H28): > 16 µM
IC50 (ESS-1): > 16 µM
IC50 (G-402): 9.13 µM
IC50 (LB647-SCLC): 7.93 µM

Source: ChEMBL document CHEMBL1201861, “Genomics of Drug Sensitity in Cancer screening data, Wellcome Trust Sanger Institute”
